Assay results from US8802720B2, “Acylamino-substituted fused cyclopentanecarboxylic acid derivatives and their use as pharmaceuticals” (SANOFI, priority 2008, dated 2014).

Target: human Edg-2 receptor (LPA1 receptor) (Homo sapiens, UniProt Q92633)
Assay: Edg-2 receptor inhibition by FLIPR calcium fluorescence measurement (LPA-mediated calcium liberation)
Assay type: cell-based
Conditions: CHO cells stably overexpressing human Edg-2 receptor; LPA 18:1 100 nM; fluo-4 fluorescence; triplicate; read-out: Inhibitory concentrations IC50 for inhibition of the Edg-2 receptor
How it was run: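 CHO cells stably overexpressing human Edg-2 were fluo-4 loaded and pre-incubated ~5 min with compound (≤0.3% DMSO) in HBSS/HEPES/probenecid, pH 7.5. Then LPA 18:1 at 100 nM final was added. Peak calcium fluorescence over ~3 min, baseline-corrected versus DMSO, gave % inhibition in triplicate and IC50.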

Sequence of human Edg-2 receptor (LPA1 receptor) (Q92633 whole entry): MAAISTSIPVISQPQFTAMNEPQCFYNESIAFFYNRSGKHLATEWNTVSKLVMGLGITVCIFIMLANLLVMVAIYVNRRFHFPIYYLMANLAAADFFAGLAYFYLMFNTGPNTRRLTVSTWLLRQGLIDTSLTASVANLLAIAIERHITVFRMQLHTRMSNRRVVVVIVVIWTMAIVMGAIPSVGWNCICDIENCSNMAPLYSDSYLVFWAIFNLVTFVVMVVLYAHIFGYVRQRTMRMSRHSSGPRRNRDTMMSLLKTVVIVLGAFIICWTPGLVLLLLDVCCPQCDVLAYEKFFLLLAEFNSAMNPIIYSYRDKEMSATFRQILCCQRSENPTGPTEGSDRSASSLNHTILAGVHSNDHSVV

Row | SMILES | IC50 [nM]
1 | Cc1cccc(CCOc2cc(C(=O)NC3(C(=O)O)Cc4ccccc4C3)ccc2OCCOC(C)(C)C)c1 [Example 259] | < 100
2 | Cc1cccc(CCOc2cc(C(=O)NC3(C(=O)O)Cc4ccccc4C3)ccc2OCCC(F)(F)F)c1 [Example 260] | 100 to 1000
3 | Cc1cccc(CCOc2cc(C(=O)NC3(C(=O)O)Cc4ccccc4C3)ccc2OCCC(C)(C)C)c1 [Example 261] | 100 to 1000
4 | Cc1cccc(CCOc2cc(C(=O)NC3(C(=O)O)Cc4ccccc4C3)ccc2OCC2CCC2)c1 [Example 262] | < 100
5 | CCCCCOc1ccc(C(=O)NC2(C(=O)O)Cc3ccccc3C2)cc1OCCc1cccc(C)c1 [Example 263] | < 100
6 | Cc1cccc(CCOc2cc(C(=O)NC3(C(=O)O)Cc4ccccc4C3)ccc2OCC2CCCCO2)c1 (stereo not drawn) [Example 264] | < 100
7 | Cc1cccc(CCOc2cc(C(=O)NC3(C(=O)O)Cc4ccccc4C3)ccc2OCCN(C)C)c1 [Example 265] | 100 to 1000
8 | Cc1cccc(CCOc2cc(C(=O)NC3(C(=O)O)Cc4ccccc4C3)ccc2OCC2CC2)c1 [Example 266, 2-[4-cyclopropylmethoxy-3-(2-m-tolyl-ethoxy)-benzoylamino]-indane-2-carboxylic acid] | < 100
9 | CSCCOc1ccc(C(=O)NC2(C(=O)O)Cc3ccccc3C2)cc1OCCc1cccc(C)c1 [Example 267] | < 100
10 | Cc1cccc(CCOc2cc(C(=O)NC3(C(=O)O)Cc4ccccc4C3)ccc2OCCF)c1 [Example 268] | < 100
11 | C=CCOc1ccc(C(=O)NC2(C(=O)O)Cc3ccccc3C2)cc1OCCc1cccc(C)c1 [Example 269] | < 100
12 | Cc1cccc(CCOc2cc(C(=O)NC3(C(=O)O)Cc4ccccc4C3)ccc2OCCO)c1 [Example 270, 2-[4-(2-Hydroxy-ethoxy)-3-(2-m-tolyl-ethoxy)-benzoylamino]-indane-2-carboxylic acid] | < 100
13 | Cc1cccc(CCOc2cc(C(=O)NC3(C(=O)O)Cc4ccccc4C3)ccc2OCC(=O)O)c1 [Example 271, 2-[4-Carboxymethoxy-3-(2-m-tolyl-ethoxy)-benzoylamino]-indane-2-carboxylic acid] | 100 to 1000
14 | Cc1cccc(CCOc2cc(C(=O)NC3(C(=O)O)Cc4ccccc4C3)ccc2OC2CC2)c1 [Example 272, 2-[4-Cyclopropoxy-3-(2-m-tolyl-ethoxy)-benzoylamino]-indane-2-carboxylic acid] | 100 to 1000
15 | CCc1sc(C(=O)NC2(C(=O)O)Cc3ccccc3C2)nc1OCCc1cccc(C)c1 [Example 273, 2-{[5-Ethyl-4-(2-m-tolyl-ethoxy)-thiazole-2-carbonyl]-amino}-indane-2-carboxylic acid] | 100 to 1000
16 | COc1ncc(C(=O)NC2(C(=O)O)Cc3ccccc3C2)cc1OCCc1cc(C)ccc1F [Example 274, 2-({5-[2-(2-Fluoro-5-methyl-phenyl)-ethoxy]-6-methoxy-pyridine-3-carbonyl}-amino)-indane-2-carboxylic acid] | < 100
17 | COc1ncc(C(=O)NC2(C(=O)O)Cc3ccccc3C2)cc1OCCc1cccc(CCO)c1 [Example 275, 2-[(5-{2-[3-(2-Hydroxy-ethyl)-phenyl]-ethoxy}-6-methoxy-pyridine-3-carbonyl)-amino]-indane-2-carboxylic acid] | < 100
18 | COc1c(F)cc(C(=O)NC2(C(=O)O)Cc3ccccc3C2)cc1OCCc1cccc(CCO)c1 [Example 276, 2-(3-Fluoro-5-{2-[3-(2-hydroxy-ethyl)-phenyl]-ethoxy}-4-methoxy-benzoylamino)-indane-2-carboxylic acid] | < 100
19 | COc1ccc(C(=O)NC2(C(=O)O)Cc3ccccc3C2)c(F)c1OCCc1cccc(C)c1 [Example 277, 2-[2-Fluoro-4-methoxy-3-(2-m-tolyl-ethoxy)-benzoylamino]-indane-2-carboxylic acid] | 1000 to 30000
20 | COc1ccc(C(=O)NC2(C(=O)O)Cc3ccccc3C2)cc1OCCC1CCCC(C)C1 (stereo not drawn) [Example 278, 2-{4-Methoxy-3-[2-(3-methyl-cyclohexyl)-ethoxy]-benzoylamino}-indane-2-carboxylic acid] | 1000 to 30000
21 | COc1ccc(C(=O)NC2(C(=O)O)Cc3ccccc3C2)cc1COCc1cccc(C)c1 [Example 279, 2-[4-Methoxy-3-(3-methyl-benzyloxymethyl)-benzoylamino]-indane-2-carboxylic acid] | 100 to 1000

Row | SMILES | IC50 [nM]
22 | COc1ccc(C(=O)NC2(C(=O)O)Cc3ccccc3C2)cc1-c1ccc(Cl)cc1 [Example 280] | 100 to 1000
23 | COc1ccc(C(=O)NC2(C(=O)O)Cc3ccccc3C2)cc1-c1ccccc1Cl [Example 281] | 1000 to 30000
24 | COc1ccc(C(=O)NC2(C(=O)O)Cc3ccccc3C2)cc1-c1cncc(Cl)c1 [Example 282, 2-[3-(5-chloro-pyridin-3-yl)-4-methoxy-benzoylamino]-indane-2-carboxylic acid] | 100 to 1000
25 | COc1ccc(C(=O)NC2(C(=O)O)Cc3ccccc3C2)cc1-c1cccc(C#N)n1 [Example 283] | 1000 to 30000
26 | COc1ccc(C(=O)NC2(C(=O)O)Cc3ccccc3C2)cc1-c1cncc(C#N)c1 [Example 284] | < 100
27 | COc1ccc(C(=O)NC2(C(=O)O)Cc3ccccc3C2)cc1-c1cccc(C)c1 [Example 286] | < 100
28 | COc1ccc(C(=O)NC2(C(=O)O)Cc3ccccc3C2)cc1-c1cccc(NC(C)=O)c1 [Example 287] | 100 to 1000
29 | CCOc1cccc(-c2cc(C(=O)NC3(C(=O)O)Cc4ccccc4C3)ccc2OC)c1 [Example 288] | 100 to 1000
30 | COc1ccc(C(=O)NC2(C(=O)O)Cc3ccccc3C2)cc1-c1cc(C(F)(F)F)ccc1Cl [Example 289] | 100 to 1000
31 | CCCc1ccc(-c2cc(C(=O)NC3(C(=O)O)Cc4ccccc4C3)ccc2OC)cc1 [Example 290] | 1000 to 30000
32 | COc1ccc(C(=O)NC2(C(=O)O)Cc3ccccc3C2)cc1-c1ccc(C)c(C)c1 [Example 291] | 100 to 1000
33 | COc1ccc(C(=O)NC2(C(=O)O)Cc3ccccc3C2)cc1-c1ccc(Cl)c(Cl)c1 [Example 292] | < 100
34 | COc1ccc(C(=O)NC2(C(=O)O)Cc3ccccc3C2)cc1-c1cccc(Cl)c1Cl [Example 293] | < 100
35 | COc1ccc(C(=O)NC2(C(=O)O)Cc3ccccc3C2)cc1-c1cc(C)c(OC)c(C)c1 [Example 294] | < 100
36 | COc1ccc(C(=O)NC2(C(=O)O)Cc3ccccc3C2)cc1-c1csc2ccccc12 [Example 295] | < 100
37 | COc1ccc(Cl)cc1-c1cc(C(=O)NC2(C(=O)O)Cc3ccccc3C2)ccc1OC [Example 296] | < 100
38 | COc1ccc(C(=O)NC2(C(=O)O)Cc3ccccc3C2)cc1-c1cccc(C#N)c1 [Example 297] | < 100
39 | COc1ccc(C(=O)NC2(C(=O)O)Cc3ccccc3C2)cc1-c1ccccc1CN(C)C [Example 299] | 1000 to 30000
40 | COc1ccc(C(=O)NC2(C(=O)O)Cc3ccccc3C2)cc1-c1cc(C)cs1 [Example 300] | 100 to 1000
41 | COc1ccc(C(=O)NC2(C(=O)O)Cc3ccccc3C2)cc1-c1cccc(SC)c1 [Example 301] | < 100
42 | COc1ccc(C(=O)NC2(C(=O)O)Cc3ccccc3C2)cc1-c1cccc(OC(F)(F)F)c1 [Example 302] | < 100

Row | SMILES | IC50 [nM]
43 | COc1ccc(C(=O)NC2(C(=O)O)Cc3ccccc3C2)cc1-c1cc(Cl)ccc1Cl [Example 303] | < 100
44 | COc1ccc(F)cc1-c1cc(C(=O)NC2(C(=O)O)Cc3ccccc3C2)ccc1OC [Example 304] | < 100
45 | COc1ccc(C(=O)NC2(C(=O)O)Cc3ccccc3C2)cc1-c1cccc(OCc2ccccc2)c1 [Example 305] | 100 to 1000
46 | COc1ccc(C(=O)NC2(C(=O)O)Cc3ccccc3C2)cc1-c1cc(F)c(F)c(F)c1 [Example 306] | < 100
47 | COc1ccc(C(=O)NC2(C(=O)O)Cc3ccccc3C2)cc1-c1cccc(NS(C)(=O)=O)c1 [Example 307] | < 100
48 | CCSc1cccc(-c2cc(C(=O)NC3(C(=O)O)Cc4ccccc4C3)ccc2OC)c1 [Example 308] | < 100
49 | COc1ccc(C(=O)NC2(C(=O)O)Cc3ccccc3C2)cc1-c1cccc(S(C)(=O)=O)c1 [Example 309] | 100 to 1000
50 | COc1ccc(C(=O)NC2(C(=O)O)Cc3ccccc3C2)cc1-c1ccc(Cl)c(C(F)(F)F)c1 [Example 310] | 100 to 1000
51 | CCS(=O)(=O)c1cccc(-c2cc(C(=O)NC3(C(=O)O)Cc4ccccc4C3)ccc2OC)c1 [Example 312, 2-[(3′-ethanesulfonyl-6-methoxy-biphenyl-3-carbonyl)-amino]-indane-2-carboxylic acid] | 100 to 1000
52 | COc1ccc(C(=O)NC2(C(=O)O)Cc3ccccc3C2)cc1-c1cc(C)cc(C(C)(C)C)c1 [Example 313] | < 100
53 | COc1ccc(C(=O)NC2(C(=O)O)Cc3ccccc3C2)cc1-c1cc(Cl)ccc1C [Example 314] | < 100
54 | COCc1cccc(-c2cc(C(=O)NC3(C(=O)O)Cc4ccccc4C3)ccc2OC)c1 [Example 315] | < 100
55 | COCc1ccccc1-c1cc(C(=O)NC2(C(=O)O)Cc3ccccc3C2)ccc1OC [Example 316] | 100 to 1000
56 | COc1ccc(C(=O)NC2(C(=O)O)Cc3ccccc3C2)cc1-c1cc(C)c(C)cc1C [Example 317] | 100 to 1000
57 | CCCOc1cccc(-c2cc(C(=O)NC3(C(=O)O)Cc4ccccc4C3)ccc2OC)c1 [Example 318] | < 100
58 | COc1ccc(C(=O)NC2(C(=O)O)Cc3ccccc3C2)cc1-c1cccc(OC(C)C)c1 [Example 319] | 100 to 1000
59 | COc1ccc(C(=O)NC2(C(=O)O)Cc3ccccc3C2)cc1-c1cc(C(F)(F)F)ccc1F [Example 320] | < 100
60 | CCCOc1ccc(-c2cc(C(=O)NC3(C(=O)O)Cc4ccccc4C3)ccc2OC)cc1Cl [Example 321] | 1000 to 30000
61 | COc1ccc(C(=O)NC2(C(=O)O)Cc3ccccc3C2)cc1-c1ccc(C(F)(F)F)c(Cl)c1 [Example 322] | < 100
62 | CNC(=O)c1cccc(-c2cc(C(=O)NC3(C(=O)O)Cc4ccccc4C3)ccc2OC)c1 [Example 323] | 1000 to 30000
63 | COc1ccc(C(=O)NC2(C(=O)O)Cc3ccccc3C2)cc1-c1cccc(OCC2CC2)c1 [Example 324] | 1000 to 30000
